Data set [1] has as its target T1, UGT1A6 (Homo sapiens, UniProt P19224).
T1 sequence (P19224 27-532): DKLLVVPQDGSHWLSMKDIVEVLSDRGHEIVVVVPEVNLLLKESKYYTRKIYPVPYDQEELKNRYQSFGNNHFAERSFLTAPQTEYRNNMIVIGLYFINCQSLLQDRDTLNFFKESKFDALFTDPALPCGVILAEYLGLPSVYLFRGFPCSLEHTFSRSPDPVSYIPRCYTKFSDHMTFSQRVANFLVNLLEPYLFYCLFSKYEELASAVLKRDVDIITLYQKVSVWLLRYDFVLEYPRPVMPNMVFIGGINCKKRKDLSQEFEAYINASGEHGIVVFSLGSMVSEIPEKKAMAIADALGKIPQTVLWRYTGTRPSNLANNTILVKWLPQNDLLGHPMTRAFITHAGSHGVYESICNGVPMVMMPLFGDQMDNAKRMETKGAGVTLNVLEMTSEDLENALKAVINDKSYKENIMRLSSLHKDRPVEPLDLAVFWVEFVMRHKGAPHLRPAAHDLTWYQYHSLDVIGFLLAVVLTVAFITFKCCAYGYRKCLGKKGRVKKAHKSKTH
Description: Inhibitory potency towards UGT isoforms: UGT1A6. In kind it is in vitro ADME.

The nature of data set [2]: Phase I DDI study with mefenamic acid. Type of data set: in vivo, human.
For data set [3] the following is noted: serum albumin main binding component; ref data on file; cited from earlier work.
The target of data set [4] is T2, OAT1 (Homo sapiens, UniProt Q4U2R8).
T2 sequence (Q4U2R8 1-563): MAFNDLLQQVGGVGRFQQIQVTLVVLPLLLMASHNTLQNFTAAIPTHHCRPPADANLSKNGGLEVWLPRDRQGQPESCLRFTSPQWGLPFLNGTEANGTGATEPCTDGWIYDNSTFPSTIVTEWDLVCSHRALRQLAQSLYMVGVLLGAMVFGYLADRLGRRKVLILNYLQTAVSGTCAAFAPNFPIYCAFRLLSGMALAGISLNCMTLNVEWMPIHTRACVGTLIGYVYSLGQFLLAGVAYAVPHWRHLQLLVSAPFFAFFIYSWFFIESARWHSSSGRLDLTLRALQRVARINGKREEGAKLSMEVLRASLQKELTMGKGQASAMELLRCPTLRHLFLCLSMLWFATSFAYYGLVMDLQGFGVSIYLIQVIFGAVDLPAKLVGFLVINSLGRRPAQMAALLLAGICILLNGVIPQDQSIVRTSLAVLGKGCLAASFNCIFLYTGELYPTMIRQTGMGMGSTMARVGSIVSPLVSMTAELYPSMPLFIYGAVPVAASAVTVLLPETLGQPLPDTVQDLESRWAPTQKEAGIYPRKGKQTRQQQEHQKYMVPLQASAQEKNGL
Description: Inhibitory potency towards OAT1. Type of data set: in vitro ADME.

Data set [5] concerns the target T3, OATP1B1 (Homo sapiens, UniProt Q9Y6L6).
T3 sequence (Q9Y6L6 1-691): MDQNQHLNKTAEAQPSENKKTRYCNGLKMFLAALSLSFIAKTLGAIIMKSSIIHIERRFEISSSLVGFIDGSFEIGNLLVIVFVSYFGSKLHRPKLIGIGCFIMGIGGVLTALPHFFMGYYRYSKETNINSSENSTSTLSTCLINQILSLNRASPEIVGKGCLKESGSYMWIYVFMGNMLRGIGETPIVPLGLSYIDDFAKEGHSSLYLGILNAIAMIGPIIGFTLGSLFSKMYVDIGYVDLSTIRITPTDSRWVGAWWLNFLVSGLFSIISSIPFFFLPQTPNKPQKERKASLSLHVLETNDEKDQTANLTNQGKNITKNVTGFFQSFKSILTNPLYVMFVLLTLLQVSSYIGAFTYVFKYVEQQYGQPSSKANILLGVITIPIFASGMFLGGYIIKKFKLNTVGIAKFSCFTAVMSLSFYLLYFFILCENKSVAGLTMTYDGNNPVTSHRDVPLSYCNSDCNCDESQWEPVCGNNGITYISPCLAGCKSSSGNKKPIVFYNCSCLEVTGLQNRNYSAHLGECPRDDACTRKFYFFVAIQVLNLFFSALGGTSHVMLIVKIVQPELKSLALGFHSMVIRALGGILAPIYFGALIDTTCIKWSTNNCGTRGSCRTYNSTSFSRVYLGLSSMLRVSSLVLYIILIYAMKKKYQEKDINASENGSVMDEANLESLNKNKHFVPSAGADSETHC
Nature of the data set: Substrate properties towards OATP1B1. In kind it is in vitro ADME.

In data set [6] the target is T4, UGT1A1 (Homo sapiens, UniProt P22309).
T4 sequence (P22309 26-533): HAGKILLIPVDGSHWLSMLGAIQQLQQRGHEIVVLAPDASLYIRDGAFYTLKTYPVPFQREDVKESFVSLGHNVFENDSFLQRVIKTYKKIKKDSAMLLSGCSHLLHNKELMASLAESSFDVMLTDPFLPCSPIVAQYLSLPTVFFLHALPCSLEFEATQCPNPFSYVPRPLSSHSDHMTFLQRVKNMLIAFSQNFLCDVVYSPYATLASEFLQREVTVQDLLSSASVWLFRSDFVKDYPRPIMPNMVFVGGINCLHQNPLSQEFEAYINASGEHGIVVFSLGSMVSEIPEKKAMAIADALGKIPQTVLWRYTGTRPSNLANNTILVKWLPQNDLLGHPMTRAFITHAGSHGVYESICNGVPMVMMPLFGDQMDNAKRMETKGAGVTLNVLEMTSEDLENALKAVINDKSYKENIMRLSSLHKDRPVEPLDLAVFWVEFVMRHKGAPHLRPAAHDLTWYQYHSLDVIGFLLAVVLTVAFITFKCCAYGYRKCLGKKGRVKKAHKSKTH
Description: Inhibitory potency towards UGT isoforms. Type of data set: in vitro ADME.

For data set [7] the following is noted: cited from earlier work.
The mark [8] stands for this setting: with mefenamic acid vs vericiguat 2.5 mg SD alone, fed.

By IC50 is commonly meant the concentration needed to halve the response being measured.

For `COC(=O)Nc1c(N)nc(-c2nn(Cc3ccccc3F)c3ncc(F)cc23)nc1N` [Vericiguat], in data set [1], the IC50 was greater than 50 µM. In addition, in data set [2] (inhibition of UGT1A9 by mefenamic acid), the “Increase in AUC of vericiguat” value stood at 20%. For the same compound, in data set [2] (setting [8]), the “AUC of vericiguat, point estimate of treatment ratio” value is recorded as 1.197 and the “Cmax of vericiguat, point estimate of treatment ratio” value is listed as 0.967. Further, the Plasma protein binding entry in data set [3] is listed as “approximately 98%”. Further, the half-maximal inhibitory concentration (IC50) in data set [4] was greater than 5 µM. Also, in data set [5], the “Substrate of OATP1B1” value is “not a substrate”. In data set [6], this compound showed a half-maximal inhibitory concentration (IC50) greater than 50 µM. Further, in data set [7], the “Permeability” value was “highly permeable” and the “Solubility” value is given as “low-soluble”.

(Values after PMC7658073 (Clinical Pharmacokinetics, 2020).)
